Assay results taken from ChEMBL document CHEMBL1132573, “Novel antitumor 2-cyanoaziridine-1-carboxamides” (J Med Chem, 1999).

What was measured:
Assay type in all cases: functional, cell-based
OVCAR-3 = test: Inhibition of cell growth in (OVCAR-3) ovarian cell line; conditions: Homo sapiens
MCF7 [1] = test: Inhibition of cell growth in drug sensitive MCF-7 breast cell line; conditions: Homo sapiens
RPMI-8226 [2] = test: Inhibition of cell growth in drug sensitive 8226 myeloma cell line; conditions: Homo sapiens
A-375 = test: Inhibition of cell growth in (A375) melan cell line; conditions: Homo sapiens
MCF7 [3] = test: Inhibition of cell growth in (MCF7 breast) dox cell line; conditions: Homo sapiens
A549 = test: Inhibition of cell growth in (A-549) lung cell line; conditions: Homo sapiens
WiDr [4] = test: Inhibition of cell growth in drug resistant WiDr colon cell line; conditions: Homo sapiens
L1210 [5] = test: Inhibition of cell growth in drug sensitive L1210 leukemia cell line determined by MTT assay; conditions: Mus musculus
L1210 [6] = test: Inhibition of cell growth in (L1210 leukemia) MDR cells determined by MTT assay; conditions: Mus musculus
RPMI-8226 [7] = test: Inhibition of cell growth in drug resistant 8226 myeloma cell line; conditions: Homo sapiens
MCF7 [8] = test: Inhibition of cell growth in (MCF7 breast) mitox cell line; conditions: Homo sapiens
WiDr [9] = test: Inhibition of cell growth in drug sensitive WiDr colon cell line; conditions: Homo sapiens

Row | SMILES | IC50 (OVCAR-3) | IC50 (MCF7 [1]) | IC50 (RPMI-8226 [2]) | IC50 (A-375) | IC50 (MCF7 [3]) | IC50 (A549) | IC50 (WiDr [4]) | IC50 (L1210 [5]) | IC50 (L1210 [6]) | IC50 (RPMI-8226 [7]) | IC50 (MCF7 [8]) | IC50 (WiDr [9])
1 | N#CC1CN1C(=O)Nc1ccc(Cl)cc1Cl (stereo not given) | 35 µM | 900 nM | 4.7 µM | > 39 µM | 1100 nM | 2.5 µM | 1.9 µM | 207 µM | 33 µM | 9.4 µM | 0.35 µM | 2200 nM
2 | N#CC1CN1C(N)=O (stereo not given) | > 90 µM | > 54000 nM |  | > 90 µM | > 54000 nM |  |  | > 90 µM | > 90 µM |  | > 54 µM | 
3 | N#CC1CN1C(=O)NC1CCCCC1 (stereo not given) | 31 µM | 13000 nM | 36 µM | 35 µM | 8900 nM | 10 µM | 12 µM | 7.4 µM | 16 µM | 98 µM | 9.8 µM | 2400 nM
4 | CCOC(=O)c1ccc(NC(=O)N2CC2C#N)cc1 (stereo not given) | 7.7 µM | 2300 nM | 3 µM | 5.8 µM | 2100 nM | 2.9 µM | 4.2 µM | 9.7 µM | 9.7 µM | 3 µM | 3.3 µM | 2500 nM
5 | N#CC1CN1C(=O)NCc1ccccc1 (stereo not given) | 5 µM | 7400 nM | 9 µM | 11 µM | 6000 nM | 7.4 µM | 10 µM | 3.8 µM | 10 µM | 11 µM | 3.4 µM | 5300 nM
6 | CC(C)(C)NC(=O)N1CC1C#N (stereo not given) | 186 µM | > 300000 nM | 120 µM | 418 µM | 190000 nM | 180 µM | > 300 µM | 132 µM | 457 µM | 216 µM | 120 µM | 180000 nM
7 | CCCCNC(=O)N1CC1C#N (stereo not given) | 12 µM | > 12000 nM | 17 µM | 15 µM | 6700 nM | 18 µM | 18 µM | 12 µM | 12 µM | 17 µM | > 12 µM | 14000 nM
8 | N#CC1CN1C(=O)Nc1cccc2ccccc12 (stereo not given) | 5.9 µM | 2000 nM | 8 µM | 4.2 µM | 1700 nM | 2.5 µM | 2.5 µM | 7.2 µM | 2.5 µM | 8.9 µM | 2 µM | 2400 nM
9 | N#CC1CN1C(=O)Nc1ccc(C(F)(F)F)cc1 (stereo not given) | 5.9 µM | 1500 nM | 8.2 µM | 11.8 µM | 1400 nM | 4.3 µM | 5.8 µM | 7.8 µM | 7.1 µM | 7.8 µM | 1.3 µM | 1300 nM
10 | N#CC1CN1C(=O)Nc1ccc(F)cc1 (stereo not given) | 5.9 µM | 1900 nM | 5 µM | 3.4 µM | 2400 nM | 6.2 µM | 9 µM | 7.3 µM | 5.9 µM | 5.9 µM | 2.7 µM | 2100 nM
